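A five-concentration, 48-hour dose response in 96-well plates underlies each endpoint, interpolated linearly between surrounding concentrations. At the GI50, growth is halved. The concentration for full growth arrest is given as TGI.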
Assays:
Test in all cases: NCI anticancer screen, dose series, 48 h
IGROV1 ovarian = tested on: IGROV1 ovarian
HT29 colon = tested on: HT29 colon
CCRF-CEM leukemia = tested on: CCRF-CEM leukemia
SF-268 CNS = tested on: SF-268 CNS
MOLT-4 leukemia = tested on: MOLT-4 leukemia
SNB-75 CNS = tested on: SNB-75 CNS
OVCAR-4 ovarian = tested on: OVCAR-4 ovarian
SK-MEL-5 melanoma = tested on: SK-MEL-5 melanoma
MALME-3M melanoma = tested on: MALME-3M melanoma
OVCAR-5 ovarian = tested on: OVCAR-5 ovarian

## Cc1ccc(/C=C2\CCCC(C(NO)c3ccc(C)cc3)C2=NO)cc1 (configuration not stated)
IGROV1 ovarian
  TGI: > 100 µM
HT29 colon
  TGI: 37.9 µM
CCRF-CEM leukemia
  TGI: 49.8 µM
SF-268 CNS
  TGI: 66.6 µM
MOLT-4 leukemia
  TGI: 42.6 µM
SNB-75 CNS
  TGI: 98.2 µM
OVCAR-4 ovarian
  TGI: 45.4 µM
SK-MEL-5 melanoma
  TGI: 50.2 µM
MALME-3M melanoma
  TGI: > 100 µM

## COC(=O)c1sc(=S)c2sc(C(=O)OC)c(C(=O)OC)c2c1C(=O)OC
IGROV1 ovarian
  GI50: 37.1 µM
  TGI: > 100 µM
HT29 colon
  GI50: 72.6 µM
  TGI: > 100 µM
CCRF-CEM leukemia
  GI50: 30.8 µM
  TGI: 80.1 µM
SF-268 CNS
  GI50: 58.8 µM
  TGI: > 100 µM
MOLT-4 leukemia
  GI50: 36.9 µM
  TGI: > 100 µM
SNB-75 CNS
  GI50: 52 µM
  TGI: > 100 µM
OVCAR-5 ovarian
  GI50: 92.2 µM
  TGI: > 100 µM
OVCAR-4 ovarian
  GI50: 82.2 µM
  TGI: > 100 µM
SK-MEL-5 melanoma
  GI50: 39.1 µM
  TGI: > 100 µM

## COc1cc2ccc(CC(=O)O)cc2cc1OC
IGROV1 ovarian
  TGI: > 100 µM
HT29 colon
  TGI: > 100 µM
CCRF-CEM leukemia
  TGI: > 100 µM
SF-268 CNS
  TGI: > 100 µM
MOLT-4 leukemia
  TGI: > 100 µM
SNB-75 CNS
  TGI: > 100 µM
OVCAR-4 ovarian
  TGI: > 100 µM
SK-MEL-5 melanoma
  TGI: > 100 µM
MALME-3M melanoma
  TGI: > 100 µM

## CC(C)(C)OC(=O)CC(S(=O)(=O)c1ccccc1)S(=O)(=O)c1ccccc1
IGROV1 ovarian
  GI50: 18.5 µM
  TGI: 38.5 µM
CCRF-CEM leukemia
  GI50: 1.64 µM
  TGI: 3.83 µM
SF-268 CNS
  GI50: 16.5 µM
  TGI: 34.4 µM
MOLT-4 leukemia
  GI50: 2.42 µM
  TGI: 5.57 µM
SNB-75 CNS
  GI50: 14.2 µM
  TGI: 31.1 µM
OVCAR-5 ovarian
  GI50: 17.4 µM
  TGI: 32.7 µM
OVCAR-4 ovarian
  GI50: 1.96 µM
  TGI: 4.58 µM
SK-MEL-5 melanoma
  GI50: 15.5 µM
  TGI: 28.8 µM
MALME-3M melanoma
  GI50: 2.08 µM
  TGI: 4.36 µM

## Cc1c(C(=O)/C=C/c2ccc3c(c2)OCO3)[n+](=O)c2ccccc2n1[O-]
IGROV1 ovarian
  TGI: > 100 µM
HT29 colon
  TGI: 56.4 µM
CCRF-CEM leukemia
  TGI: > 100 µM
SF-268 CNS
  TGI: > 100 µM
MOLT-4 leukemia
  TGI: 73.9 µM
SNB-75 CNS
  TGI: 68.6 µM
OVCAR-5 ovarian
  TGI: 74.3 µM
OVCAR-4 ovarian
  TGI: > 100 µM
MALME-3M melanoma
  TGI: > 100 µM

## O=C(NCCOC(=O)CCCCCCCCC(=O)OCCNC(=O)NC(=O)c1cn(Cc2ccccc2)c(=O)[nH]c1=O)NC(=O)c1cn(Cc2ccccc2)c(=O)[nH]c1=O
IGROV1 ovarian
  TGI: > 100 µM
HT29 colon
  TGI: > 100 µM
SF-268 CNS
  TGI: > 100 µM
MOLT-4 leukemia
  TGI: > 100 µM
SNB-75 CNS
  TGI: > 100 µM
OVCAR-5 ovarian
  TGI: > 100 µM
OVCAR-4 ovarian
  TGI: > 100 µM
SK-MEL-5 melanoma
  TGI: > 100 µM

## Clc1cc(Cl)cc(Nc2ccc3c(OCCCN4CCOCC4)cccc3n2)c1
IGROV1 ovarian
  GI50: 3.9 µM
  TGI: 17.6 µM
HT29 colon
  GI50: 1.76 µM
  TGI: 3.39 µM
CCRF-CEM leukemia
  GI50: 2.36 µM
  TGI: 6.36 µM
SF-268 CNS
  GI50: 3 µM
  TGI: 9.63 µM
MOLT-4 leukemia
  GI50: 2.25 µM
  TGI: 5.61 µM
OVCAR-5 ovarian
  GI50: 1.83 µM
  TGI: 4.37 µM
OVCAR-4 ovarian
  GI50: 10.3 µM
  TGI: 22.2 µM
SK-MEL-5 melanoma
  GI50: 10.1 µM
  TGI: 23.2 µM
MALME-3M melanoma
  GI50: 2.5 µM
  TGI: 6.33 µM

## CC1(C)N=C(N)N=C(N)N1c1ccc(CCCCCCc2ccc(S(=O)(=O)F)cc2)cc1
IGROV1 ovarian
  TGI: 30.8 µM
HT29 colon
  TGI: 17.1 µM
SF-268 CNS
  TGI: 31.3 µM
SNB-75 CNS
  TGI: 24.8 µM
OVCAR-5 ovarian
  TGI: 15 µM
OVCAR-4 ovarian
  TGI: > 100 µM
SK-MEL-5 melanoma
  TGI: 2.76 µM
MALME-3M melanoma
  TGI: 3.79 µM

## COc1cc(COC(=O)N(C)[C@@H](Cc2ccccc2)C(=O)O)c([N+](=O)[O-])cc1OC
IGROV1 ovarian
  TGI: > 100 µM
HT29 colon
  TGI: > 100 µM
CCRF-CEM leukemia
  TGI: > 100 µM
SF-268 CNS
  TGI: > 100 µM
MOLT-4 leukemia
  TGI: > 100 µM
SNB-75 CNS
  TGI: > 100 µM
OVCAR-5 ovarian
  TGI: > 100 µM
SK-MEL-5 melanoma
  TGI: > 100 µM
MALME-3M melanoma
  TGI: > 100 µM

## COc1ccc(C2NC(c3ccc(OC)cc3)C(C)C(=O)C2C)cc1 (configuration not stated)
IGROV1 ovarian
  TGI: > 100 µM
HT29 colon
  TGI: > 100 µM
CCRF-CEM leukemia
  TGI: > 100 µM
SF-268 CNS
  TGI: > 100 µM
MOLT-4 leukemia
  TGI: > 100 µM
SNB-75 CNS
  TGI: > 100 µM
OVCAR-5 ovarian
  TGI: 97.2 µM
OVCAR-4 ovarian
  TGI: > 100 µM
MALME-3M melanoma
  TGI: > 100 µM

## O=C(N[C@H]1CC2(C=C(I)C(=O)C(I)=C2)OC1=O)OCc1ccccc1
HT29 colon
  TGI: 35.8 µM
CCRF-CEM leukemia
  TGI: 8.64 µM
SF-268 CNS
  TGI: 33.1 µM
SNB-75 CNS
  TGI: 38.2 µM
OVCAR-5 ovarian
  TGI: 33.2 µM
OVCAR-4 ovarian
  TGI: 33.5 µM
SK-MEL-5 melanoma
  TGI: 74.6 µM
MALME-3M melanoma
  TGI: 31.9 µM

## CCCCCCC1CCCCN1C(c1ccccc1)C(O)c1ccccc1 (configuration not stated)
IGROV1 ovarian
  GI50: 8.62 µM
  TGI: 22 µM
HT29 colon
  GI50: 3.09 µM
  TGI: 12.2 µM
SF-268 CNS
  GI50: 10.9 µM
  TGI: 23.1 µM
MOLT-4 leukemia
  GI50: 4.96 µM
  TGI: 19.4 µM
SNB-75 CNS
  GI50: 11.4 µM
  TGI: 23.7 µM
OVCAR-5 ovarian
  GI50: 10.1 µM
  TGI: 22 µM
OVCAR-4 ovarian
  GI50: 7.98 µM
  TGI: 21.7 µM
SK-MEL-5 melanoma
  GI50: 2.48 µM
  TGI: 5.88 µM
MALME-3M melanoma
  GI50: 5.37 µM
  TGI: 19.7 µM

## CN(Cc1cnc2nc(N)nc(N)c2n1)c1c(Cl)cc(C(=O)NC(CCC(=O)O)C(=O)O)cc1Br (configuration not stated)
IGROV1 ovarian
  GI50: < 0.01 µM
  TGI: 18.2 µM
HT29 colon
  GI50: < 0.01 µM
  TGI: > 100 µM
CCRF-CEM leukemia
  GI50: < 0.01 µM
  TGI: > 100 µM
SF-268 CNS
  GI50: < 0.01 µM
  TGI: > 100 µM
MOLT-4 leukemia
  GI50: < 0.01 µM
  TGI: > 100 µM
OVCAR-5 ovarian
  GI50: 0.127 µM
  TGI: > 100 µM
OVCAR-4 ovarian
  GI50: > 100 µM
  TGI: > 100 µM
SK-MEL-5 melanoma
  GI50: 0.0313 µM
  TGI: > 100 µM
MALME-3M melanoma
  GI50: 0.0322 µM
  TGI: > 100 µM

## COc1ccc(S(=O)(=O)NNS(C)(=O)=O)cc1OC
IGROV1 ovarian
  TGI: > 100 µM
HT29 colon
  TGI: > 100 µM
CCRF-CEM leukemia
  TGI: > 100 µM
SF-268 CNS
  TGI: > 100 µM
MOLT-4 leukemia
  TGI: > 100 µM
SNB-75 CNS
  TGI: > 100 µM
OVCAR-4 ovarian
  TGI: > 100 µM
SK-MEL-5 melanoma
  TGI: > 100 µM
MALME-3M melanoma
  TGI: > 100 µM

## O=S1(=O)CS(=O)(=O)OCCCCCO1
IGROV1 ovarian
  TGI: > 100 µM
HT29 colon
  TGI: > 100 µM
CCRF-CEM leukemia
  TGI: > 100 µM
SF-268 CNS
  TGI: > 100 µM
SNB-75 CNS
  TGI: > 100 µM
OVCAR-5 ovarian
  TGI: > 100 µM
OVCAR-4 ovarian
  TGI: > 100 µM
MALME-3M melanoma
  TGI: > 100 µM

## Cc1ncc([N+](=O)[O-])n1CCOc1ccc(C(=O)/C=C/c2ccc(C(F)(F)F)cc2)cc1
IGROV1 ovarian
  GI50: 2 µM
  TGI: 4.13 µM
HT29 colon
  GI50: 1.99 µM
  TGI: 4.23 µM
CCRF-CEM leukemia
  GI50: 2.02 µM
  TGI: 6 µM
SF-268 CNS
  GI50: 2.72 µM
  TGI: 8.49 µM
MOLT-4 leukemia
  GI50: 2.17 µM
  TGI: 6.29 µM
SNB-75 CNS
  GI50: 2.57 µM
  TGI: 12.8 µM
OVCAR-5 ovarian
  GI50: 2.93 µM
  TGI: 14.4 µM
OVCAR-4 ovarian
  GI50: 2.99 µM
  TGI: 14.6 µM
SK-MEL-5 melanoma
  GI50: 6.1 µM
  TGI: 20.3 µM

## O=C([CH-]C(=O)c1ccccc1)c1ccccc1.[CH2-]C.[CH2-]C.[Tl+3]
IGROV1 ovarian
  GI50: 24.4 µM
  TGI: > 100 µM
HT29 colon
  GI50: 26 µM
  TGI: > 100 µM
SF-268 CNS
  GI50: 18.4 µM
  TGI: > 100 µM
MOLT-4 leukemia
  GI50: 6.63 µM
  TGI: 41.8 µM
SNB-75 CNS
  GI50: 25.2 µM
  TGI: > 100 µM
OVCAR-5 ovarian
  GI50: 40.5 µM
  TGI: > 100 µM
OVCAR-4 ovarian
  GI50: 16.8 µM
  TGI: > 100 µM
SK-MEL-5 melanoma
  GI50: 16.5 µM
  TGI: 50.1 µM
MALME-3M melanoma
  GI50: 21.3 µM
  TGI: > 76.7 µM
